Assay [1] concerns the target T1, mGAT3 (Mus musculus, UniProt P31649).
T1 construct: expressed in transfected cells; host or cells: HEK293
T1 sequence (P31649 1-602): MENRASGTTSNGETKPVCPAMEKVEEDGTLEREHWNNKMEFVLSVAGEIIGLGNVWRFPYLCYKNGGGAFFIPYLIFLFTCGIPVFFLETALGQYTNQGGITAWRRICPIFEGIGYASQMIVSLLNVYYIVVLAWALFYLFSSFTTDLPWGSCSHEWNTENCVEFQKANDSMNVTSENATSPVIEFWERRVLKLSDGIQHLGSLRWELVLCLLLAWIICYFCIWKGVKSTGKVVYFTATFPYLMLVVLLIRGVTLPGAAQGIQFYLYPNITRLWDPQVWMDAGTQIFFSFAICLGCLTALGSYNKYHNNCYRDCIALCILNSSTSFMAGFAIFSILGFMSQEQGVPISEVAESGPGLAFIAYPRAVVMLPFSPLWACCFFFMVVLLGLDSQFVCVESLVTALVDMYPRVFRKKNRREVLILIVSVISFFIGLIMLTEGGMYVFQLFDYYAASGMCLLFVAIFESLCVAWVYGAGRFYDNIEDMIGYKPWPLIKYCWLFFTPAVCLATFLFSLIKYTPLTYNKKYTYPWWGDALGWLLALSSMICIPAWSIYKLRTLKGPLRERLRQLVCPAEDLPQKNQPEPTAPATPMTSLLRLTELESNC
Description: [^3H]GABA uptake assay, HEK293 cells expressing mGAT3. In kind it is cell-based. The settings on record: for IC50: [^3H]GABA uptake, pIC50±SEM. In outline: (§1)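 HEK293 cells expressing mouse GATs preincubated 25 min at 37 °C with compound in Krebs buffer pH 7.2, then [3H]GABA added: 8 nM plus 32 nM unlabeled for 4 min (mGAT1/3/4), 20 nM plus 20 nM for 10 min (mGAT2). Filtration, scintillation counting; nonspecific uptake with 10 mM (mGAT1/3/4) or 100 mM GABA (mGAT2); pIC50.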

The target in assay [2] is T2, mGAT4 (Mus musculus, UniProt P31650).
T2 construct: expressed in transfected cells; host or cells: HEK293
T2 sequence (P31650 1-627): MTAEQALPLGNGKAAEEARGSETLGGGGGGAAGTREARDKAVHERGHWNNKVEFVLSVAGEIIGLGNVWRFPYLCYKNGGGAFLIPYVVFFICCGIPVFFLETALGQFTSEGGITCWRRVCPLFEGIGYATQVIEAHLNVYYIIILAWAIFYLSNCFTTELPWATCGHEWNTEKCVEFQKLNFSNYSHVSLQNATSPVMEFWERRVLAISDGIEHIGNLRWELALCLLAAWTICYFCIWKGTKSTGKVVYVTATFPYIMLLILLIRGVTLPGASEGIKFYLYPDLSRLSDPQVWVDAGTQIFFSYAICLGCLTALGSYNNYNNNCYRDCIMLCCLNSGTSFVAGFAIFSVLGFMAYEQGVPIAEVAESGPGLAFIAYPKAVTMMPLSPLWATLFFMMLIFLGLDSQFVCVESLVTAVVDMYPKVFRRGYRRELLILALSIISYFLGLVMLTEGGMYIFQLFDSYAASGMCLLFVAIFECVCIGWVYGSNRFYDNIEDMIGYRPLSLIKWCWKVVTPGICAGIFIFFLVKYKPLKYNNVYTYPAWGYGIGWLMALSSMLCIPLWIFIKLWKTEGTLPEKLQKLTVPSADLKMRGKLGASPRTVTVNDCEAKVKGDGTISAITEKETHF
Description: [^3H]GABA uptake assay, HEK293 cells expressing mGAT4. Format: cell-based. The conditions noted are these: for IC50: [^3H]GABA uptake, pIC50±SEM. In outline:
as §1

The target of assay [3] is T3, mGAT1 (Mus musculus, UniProt P31648).
T3 construct: expressed in transfected cells; host or cells: HEK293
Kind of assay: [^3H]GABA uptake assay, HEK293 cells expressing mGAT1. In kind it is cell-based. The settings on record: for IC50: [^3H]GABA uptake, pIC50±SEM. In outline:
as §1

The target in assay [4] is T4, mGAT2 (Mus musculus, UniProt P31651).
T4 construct: expressed in transfected cells; host or cells: HEK293
T4 sequence (P31651 1-614): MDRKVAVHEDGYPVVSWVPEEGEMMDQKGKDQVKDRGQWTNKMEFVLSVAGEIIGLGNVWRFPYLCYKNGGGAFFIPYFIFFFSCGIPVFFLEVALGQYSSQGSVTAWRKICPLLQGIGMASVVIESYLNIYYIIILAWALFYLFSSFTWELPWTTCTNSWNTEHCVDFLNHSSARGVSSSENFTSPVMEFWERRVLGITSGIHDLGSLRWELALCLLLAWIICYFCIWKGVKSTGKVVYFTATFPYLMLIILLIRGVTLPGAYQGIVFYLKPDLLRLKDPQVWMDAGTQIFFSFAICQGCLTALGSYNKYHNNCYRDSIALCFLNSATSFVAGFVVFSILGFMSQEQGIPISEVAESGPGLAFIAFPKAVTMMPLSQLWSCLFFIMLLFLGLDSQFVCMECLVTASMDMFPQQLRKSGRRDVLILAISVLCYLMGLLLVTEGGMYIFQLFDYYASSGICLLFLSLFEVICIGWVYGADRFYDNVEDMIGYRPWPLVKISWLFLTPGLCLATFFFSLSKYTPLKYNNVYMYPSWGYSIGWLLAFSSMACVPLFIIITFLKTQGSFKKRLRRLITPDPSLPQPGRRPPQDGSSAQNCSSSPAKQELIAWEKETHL
Description: [^3H]GABA uptake assay, HEK293 cells expressing mGAT2. Format: cell-based. The conditions noted are these: HEK293; in presence of 100 μM compound. In outline: as §1

In assay [5] the target is T3, mGAT1. Kind of assay: MS Binding Assay with NO711 as native MS marker. The conditions noted are these: for remaining activity at 100 µM: in presence of 100 μM compound, read-out: remaining specific NO711 binding (mGAT1). The essentials: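 Competitive MS binding using membranes from HEK293 cells stably expressing mGAT1, with 10 nM unlabeled NO711 as marker and compounds at 7 concentrations. Nonspecific binding defined with 100 mM GABA. Bound NO711 eluted after filtration and quantified by LC-ESI-MS/MS against [2H10]NO711; Ki derived.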

Assay [6] addresses T4, mGAT2. The conditions noted are these: cited from earlier work; for remaining [^3H]GABA uptake mGAT2: in presence of 100 μM compound.
Assay [7] has as its target T2, mGAT4. Description: GABA uptake inhibition at mGAT4 with varied preincubation time. In kind it is cell-based.
The target of assay [8] is T1, mGAT3. The conditions noted are these: cited from earlier work.
Assay [9] concerns the target T2, mGAT4. The conditions noted are these: in presence of 100 μM compound; cited from earlier work.
The mark [10] stands for this setting: HEK293, in presence of 100 μM compound.

The values that follow come from article PMC7317212 (Chemmedchem, 2020).

SMILES strings stand for the structures.

With `CCOC(=O)C1CCCN(CCOC(c2ccc(CNc3ccc(C(=O)O)cc3)cc2)(c2ccc(OC)cc2)c2ccc(OC)cc2)C1` (racemic) [12 t, rac‐ 4‐{[4‐({2‐[3‐(Ethoxycarbonyl)piperidin‐1‐yl]ethoxy}bis{4‐methoxy‐phenyl}methyl)benzyl]amino}benzoic acid], the remaining activity at 100 µM at mGAT3 [1] (setting [10]) turned out to be 49.7%; on mGAT4 [2] (setting [10]), 63.9%; at mGAT1 [3] (setting [10]) it was 52.3%; at mGAT2 [4] it was 73.5%; on mGAT1 [5], 102%.

For `COc1ccc(C(OCCN2CCC[C@@H](C(=O)O)C2)(c2ccc(C=O)cc2)c2ccc(OC)cc2)cc1` [(R)‐5 a], the concentration for half-maximal inhibition (IC50) against mGAT3 [1] is 33.9 µM; against mGAT4 [2] it was 13.8 µM; against mGAT1 [3], 35.5 µM. The remaining activity at 100 µM at mGAT2 [4] was 50.1%. In addition, the Ki at mGAT1 [5] (MS Binding Assay, NO711 marker, pKi±SEM, read-out: pK i mGAT1 (converted)) was 12.3 µM.

For the compound `COc1ccc(C(OCCN2CCC[C@H](C(=O)O)C2)(c2ccc(C=O)cc2)c2ccc(OC)cc2)cc1` [(S)‐5 a, (S)‐1‐{2‐[(4‐Formylphenyl)bis(4‐methoxyphenyl)methoxy]ethyl}piper‐idine‐3‐carboxylic acid], the results for the half-inhibitory concentration (IC50) at mGAT3 [1], against mGAT4 [2] and at mGAT1 [3] were 6.92 µM, 1.29 µM and 72.4 µM, respectively. The remaining activity at 100 µM at mGAT2 [4] was determined as 72.6%; on mGAT1 [5], 77.4%.

As to `COc1ccc(C(OCCN2CCC[C@H](C(=O)O)C2)(c2ccc(OC)cc2)c2ccc(OC)cc2)cc1` [(S)‐SNAP‐5114, reference compound], the “remaining [^3H]GABA uptake mGAT2” value on mGAT2 [6] was 56%. For the same compound, the “Normalized pIC50 mGAT4” value came to 97.20 at mGAT4 [7] (preincubation time 10 min, experiments 1-3, relative to 25 min = 100.00); 100.00 on mGAT4 [7] (preincubation time 25 min, experiments 1-3 (reference)); 100.00 at mGAT4 [7] (preincubation time 25 min, experiments 4-6 (reference)); 101.23 at mGAT4 [7] (preincubation time 60 min, experiments 1-3, relative to 25 min = 100.00); 103.79 at mGAT4 [7] (preincubation time 60 min, experiments 4-6, relative to 25 min = 100.00).

Turning to `COc1ccc(C(OCCN2CCC[C@H](C(=O)O)C2)(c2ccc(OC)cc2)c2ccc(OC)cc2C)cc1` [DDPM‐859], the “pIC50 mGAT3” value on mGAT3 [8] ([^3H]GABA uptake, pIC50±SEM) is listed as 4.85±0.04. Further, the “pIC50 mGAT2” value on mGAT2 [6] ([^3H]GABA uptake, pIC50±SEM) is 4.12±0.08.

For `Cc1ccsc1C(=CCCN1CCC[C@@H](C(=O)O)C1)c1sccc1C` [Tiagabine], the “remaining [^3H]GABA uptake mGAT3” value on mGAT3 [8] (in presence of 100 μM compound) was 64%. Moreover, the “remaining [^3H]GABA uptake mGAT2” value on mGAT2 [6] was 50%. For the same compound, on mGAT4 [9], the “remaining [^3H]GABA uptake mGAT4” value was 73%.
